# Reference: patent publication US20110207760A1, “SN-38 COMPOSITIONS” (priority 2010, published 2011)
# Experiments:
# [1] = Dissolution of SN-38 in aqueous SBECD at 100° C. (HPLC); assay type: physicochemical; conditions: boiling water bath 1 hour, 24 hours room temperature
# Procedure: 37.6 mL water was added to 62.4 g sodium sulfobutyl ether beta-cyclodextrin (having a substitution level of about 7, as determined by NMR, and a water content of 3.9%, as determined by Karl-Fisher method), and was mixed until homogenous. The resulting viscous liquid was filtered through a 0.2 micrometer nylon filter to produce 60% (w/w) clear aqueous solution of SBECD. The density of this solution was 1.29 g/mL.
# 2 mg of SN-38 was added to 4g of such 60% (w/w) aqueous SBECD, and the mixture heated in a boiling water bath for 1 hour, allowed to cool and kept at room temperature for 24 hours, and then filtered through a 0.2 micrometer nylon filter with a 1 micrometer glass fiber prefilter. A clear yellow viscous liquid was produced.
# (§1) Aliquots of the resultant SN-38 composition in aqueous SBECD were diluted 6 times with water, and further diluted with 10% (w/w) aqueous SBECD to obtain samples having a concentration suitable for HPLC analysis. The samples were analyzed by HPLC using column Symmetry Shield C18 3.5 μ, 50×4.6 mm (Waters), water (0.1% TFA)—acetonitrile (0.1% TFA) gradient and UV detection at 225 nm and 260 nm. The concentrations of SN-38 in the samples were determined by comparison of the area under the peak with the results obtained from analysis of standard solutions.
# 4 g samples of aqueous SBECD having a concentration of 20%, 30%, 40%, 50% and 60% (w/w), respectively, were mixed with 2 mg of SN-38. The mixtures were heated in boiling water bath for 1 hour and then were kept for 24 hours at room temperature. The mixtures were then filtered through a 0.2 micrometer nylon filter and analyzed by HPLC as described in Example 1.
# [2] = Dissolution of SN-38 in 60% (w/w) aqueous SBECD at 34° C. (HPLC); assay type: physicochemical; conditions: Example 2: 60% (w/w) aqueous SBECD, 48 hours, filtered
# Procedure: as §1
# A sample of 4 g of 60% (w/w) aqueous SBECD was mixed with 2 mg of SN-38, and the mixture was incubated at 34° C. with constant mixing for 48 hours. The mixture was then filtered through 0.2 micrometer nylon filter and analyzed by HPLC as described in Example 1. The concentration of SN-38 in solution was 0.16 mg/g.
# [3] = tested on: Human Colon Carcinoma LoVo DX Cells; experiment: Growth of subcutaneous solid tumor of LoVo DX cells in mice; assay type: in vivo, Balb/c mice; conditions: treated group, (SEM); for Tumor volume: SN-38 4.5 mg/kg in 20% SBECD i.p. twice daily; for Tumor volume increase: relative to day 0 of treatment
# Source text: Lovo Dx cells (2.5×10^6 cells per an injection) in culture medium with 30% Matrigel were subcutaneously inoculated at 2 sides of the flank (in the mid-flank) of each of 15 Balb/c mice. 20 days after inoculation the animals were randomly divided into 2 groups: control (8 mice) and treated (7 animals). On day 21, 24, 27 and 30 after inoculation (days 1, 4, 7, and 10 of treatment), twice daily, at 10 am and at 4 pm, the animals received intraperitoneal injections. Control animals received each time injection of 0.49 mL of 0.9% saline. Treated animals received each time injection of SN-38 solution in 20% SBECD (w/w), 4.5 mg/kg of SN-38. The SN-38 solution for the treatment was prepared by the dilution of concentrated composition of the Example 1 with water. Tumor sizes and body weight of each animal was monitored during treatment. The results represented as average tumor volume estimated from measurements of tumor diameters (V=0.5*D1*D2*D2, where Dl and D2 are longer and shorter diameter of the tumor) are presented in Table 7 below (the standard error of mean is in parentheses).
smiles,measurement,setting,value
"CCc1c2c(nc3ccc(O)cc13)-c1cc3c(c(=O)n1C2)COC(=O)[C@]3(O)CC [SN-38, (4S)-4,11-Diethyl-4,9-dihydroxy-1H-pyrano[3′,4′:6,7]indolizino[1,2-b]quinoline-3,14(4H,12H)dione]",SN-38 concentration,[1]; 20% SBECD,0.03 mg/g of solution
same,SN-38 concentration,[1]; 30% SBECD,0.07 mg/g of solution
same,SN-38 concentration,[1]; 40% SBECD,0.13 mg/g of solution
same,SN-38 concentration,[1]; 50% SBECD,0.23 mg/g of solution
same,SN-38 concentration,[1]; 60% SBECD,0.40 mg/g of solution
same,concentration of SN-38 in the product solution,"[1]; Example 1: 60% (w/w) aqueous SBECD, filtered",0.40 mg/g of composition
same,concentration of SN-38 in solution,[2],0.16 mg/g
same,Tumor volume,[3]; day 0 of treatment,0.123 (0.010) cm^3
same,Tumor volume,[3]; day 4 of treatment,0.128 (0.010) cm^3
same,Tumor volume,[3]; day 6 of treatment,0.140 (0.011) cm^3
same,Tumor volume,[3]; day 8 of treatment,0.142 (0.012) cm^3
same,Tumor volume,[3]; day 11 of treatment,0.163 (0.017) cm^3
same,Tumor volume,[3]; day 13 of treatment,0.185 (0.019) cm^3
same,Tumor volume,[3]; day 15 of treatment,0.195 (0.020) cm^3
same,Tumor volume,[3]; day 18 of treatment,0.217 (0.024) cm^3
same,Tumor volume,[3]; day 20 of treatment,0.284 (0.040) cm^3
same,Tumor volume,[3]; day 22 of treatment,0.349 (0.055) cm^3
same,Tumor volume increase,[3]; day 0,100 Percentage
same,Tumor volume increase,[3]; day 4,105 (4) Percentage
same,Tumor volume increase,[3]; day 6,115 (6) Percentage
same,Tumor volume increase,[3]; day 8,117 (7) Percentage
same,Tumor volume increase,[3]; day 11,133 (11) Percentage
same,Tumor volume increase,[3]; day 13,150 (10) Percentage
same,Tumor volume increase,[3]; day 15,157 (10) Percentage
same,Tumor volume increase,[3]; day 18,175 (12) Percentage
same,Tumor volume increase,[3]; day 20,224 (22) Percentage
same,Tumor volume increase,[3]; day 22,271 (29) Percentage
